Drawing on patent US20230391739A1, “ARYL DERIVATIVES FOR TREATING TRPM3 MEDIATED DISORDERS” (Katholieke Universiteit Leuven, priority 2020, published 2023), this text covers IC50 for 39 molecules.

The IC50 is the midpoint of a concentration-inhibition curve. A higher IC50 goes with lower potency.

The structures appear in SMILES notation. A value given as a limit tells only on which side of the number the result lay.

The target in the test is T1, mouse TRPM3α2 (mTRPM3) ion channel (Mus musculus, UniProt J9SQF3).
T1 construct: expressed in transfected cells; host or cells: flip-in HEK293
T1 sequence (J9SQF3 1-1709 isoform J9SQF3-12): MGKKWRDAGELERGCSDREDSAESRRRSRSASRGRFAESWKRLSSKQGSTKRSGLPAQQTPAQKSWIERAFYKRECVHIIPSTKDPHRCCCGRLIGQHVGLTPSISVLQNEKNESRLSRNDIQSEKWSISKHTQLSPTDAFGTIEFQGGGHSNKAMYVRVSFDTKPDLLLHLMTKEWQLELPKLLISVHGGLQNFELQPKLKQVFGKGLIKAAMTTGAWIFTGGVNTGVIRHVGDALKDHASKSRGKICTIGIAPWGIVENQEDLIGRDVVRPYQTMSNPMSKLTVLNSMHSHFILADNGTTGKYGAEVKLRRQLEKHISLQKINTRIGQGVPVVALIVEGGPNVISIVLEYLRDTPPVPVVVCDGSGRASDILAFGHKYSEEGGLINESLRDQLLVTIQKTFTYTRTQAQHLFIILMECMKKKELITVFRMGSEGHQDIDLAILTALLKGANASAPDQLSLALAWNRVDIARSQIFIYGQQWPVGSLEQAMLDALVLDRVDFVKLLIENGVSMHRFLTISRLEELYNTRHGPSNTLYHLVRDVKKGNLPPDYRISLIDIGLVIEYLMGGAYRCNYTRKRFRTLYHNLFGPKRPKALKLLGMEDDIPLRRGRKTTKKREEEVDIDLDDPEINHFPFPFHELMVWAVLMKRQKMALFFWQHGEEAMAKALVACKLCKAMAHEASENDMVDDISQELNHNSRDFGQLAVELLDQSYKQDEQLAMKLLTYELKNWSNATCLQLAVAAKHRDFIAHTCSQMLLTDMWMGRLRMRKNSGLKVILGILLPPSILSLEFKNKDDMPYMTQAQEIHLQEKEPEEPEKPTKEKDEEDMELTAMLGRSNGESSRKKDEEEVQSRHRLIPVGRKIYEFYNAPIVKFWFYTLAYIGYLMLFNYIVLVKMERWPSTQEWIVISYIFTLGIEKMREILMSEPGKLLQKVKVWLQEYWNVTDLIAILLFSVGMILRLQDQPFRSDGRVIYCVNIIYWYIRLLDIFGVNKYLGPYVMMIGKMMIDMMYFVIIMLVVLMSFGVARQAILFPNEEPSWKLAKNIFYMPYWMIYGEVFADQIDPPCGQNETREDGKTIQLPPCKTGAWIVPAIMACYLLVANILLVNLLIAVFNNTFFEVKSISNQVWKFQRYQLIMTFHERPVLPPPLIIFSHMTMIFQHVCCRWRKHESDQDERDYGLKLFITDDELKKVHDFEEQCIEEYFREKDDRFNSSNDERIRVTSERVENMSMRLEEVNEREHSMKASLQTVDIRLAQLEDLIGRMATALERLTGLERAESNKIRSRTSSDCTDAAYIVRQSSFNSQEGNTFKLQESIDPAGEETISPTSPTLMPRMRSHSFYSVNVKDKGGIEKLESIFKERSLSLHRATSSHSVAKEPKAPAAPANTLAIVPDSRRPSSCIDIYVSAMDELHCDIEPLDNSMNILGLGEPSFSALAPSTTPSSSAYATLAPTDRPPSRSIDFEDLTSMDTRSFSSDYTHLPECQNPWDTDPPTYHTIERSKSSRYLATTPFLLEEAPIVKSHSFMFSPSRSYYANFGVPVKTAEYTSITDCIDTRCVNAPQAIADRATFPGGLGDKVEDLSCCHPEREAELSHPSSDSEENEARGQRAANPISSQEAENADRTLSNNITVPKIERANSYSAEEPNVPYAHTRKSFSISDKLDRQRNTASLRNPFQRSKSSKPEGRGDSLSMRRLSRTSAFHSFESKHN
In words: TRPM3 ion channel driven Ca2+ uptake, Fluo-4 AM assay, PS-stimulated (mTRPM3). The class given is cell-based. To be noted: TRPM3 overexpressing flip-in HEK293 cells stimulated with Pregnenolone sulfate (PS) 50 μM, activity ranges A, B, C. A digest of the protocol:
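Ca²⁺ influx through mouse TRPM3α2, opened by 50 μM pregnenolone sulfate, was tracked with Fluo-4 AM in stably transfected HEK293 cells read directly after seeding onto pre-dispensed compound.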

`Cc1oc2ccc(OCc3ccccc3)cc2c1C(=O)N[C@H]1C[C@H]2CC[C@@H](C1)N2` [Cpd 143, 5-(benzyloxy)-N-((1R,3r,5S)-8-azabicyclo[3.2.1]octan-3-yl)-2-methylbenzofuran-3-carboxamide] registered an IC50 of under 1000 nM. `Cc1oc2ccc(OCc3ccccc3)cc2c1C(=O)NC1CCN2CCCC12` (stereo not drawn) [Cpd 144, 5-(benzyloxy)-N-(hexahydro-1H-pyrrolizin-1-yl)-2-methylbenzofuran-3-carboxamide] came in with an IC50 of under 1000 nM. Under `CC(=O)N1CC[C@H](NC(=O)c2c(C)oc3ccc(OCc4ccccc4)cc23)C1` [Cpd 145, (S)—N-(1-acetylpyrrolidin-3-yl)-5-(benzyloxy)-2-methylbenzofuran-3-carboxamide] stands 1000 to 20000 nM; under `Cc1oc2ccc(OCc3ccccc3)cc2c1C(=O)NC1CCN(C)C(=O)C1` (stereo not drawn) [Cpd 146, 5-(benzyloxy)-2-methyl-N-(1-methyl-2-oxopiperidin-4-yl)benzofuran-3-carboxamide], 1000 to 20000 nM. Under `CCN1CCC(NC(=O)c2c(C)oc3ccc(OCc4ccccc4)cc23)C1=O` (stereo not drawn) [Cpd 147, 5-(benzyloxy)-N-(1-ethyl-2-oxopyrrolidin-3-yl)-2-methylbenzofuran-3-carboxamide] stands under 1000 nM; under `Cc1oc2ccc(OCc3ccccc3)cc2c1C(=O)NC1CN(C2COC2)C1` [Cpd 148, 5-(benzyloxy)-2-methyl-N-(1-(oxetan-3-yl)azetidin-3-yl)benzofuran-3-carboxamide], under 1000 nM; under `CCN1CCCN(C(=O)c2c(C)oc3ccc(OCc4ccccc4)cc23)CC1` [Cpd 149, (5-(benzyloxy)-2-methylbenzofuran-3-yl)(4-ethyl-1,4-diazepan-1-yl)methanone], over 20000 nM. Under `Cc1oc2ccc(OCc3ccccc3)cc2c1C(=O)N1CCCC(N(C)C)C1` (stereo not drawn) [Cpd 150, (5-(benzyloxy)-2-methylbenzofuran-3-yl)(3-(dimethylamino)piperidin-1-yl)methanone] stands over 20000 nM; under `CCN1CCC(NC(=O)c2c(C)oc3ccc(OCc4ccccc4)cc23)CC1` [Cpd 151, 5-(benzyloxy)-N-(1-ethylpiperidin-4-yl)-2-methylbenzofuran-3-carboxamide], under 1000 nM; under `CCN1CCC[C@H]1CNC(=O)c1c(C)oc2ccc(OCc3ccccc3)cc12` [Cpd 152, (S)-5-(benzyloxy)-N-((l-ethylpyrrolidin-2-yl)methyl)-2-methylbenzofuran-3-carboxamide], 1000 to 20000 nM. `CCN1CCC[C@@H]1CNC(=O)c1c(C)oc2ccc(OCc3ccccc3)cc12` [Cpd 153, (R)-5-(benzyloxy)-N-((l-ethylpyrrolidin-2-yl)methyl)-2-methylbenzofuran-3-carboxamide] had an IC50 of under 1000 nM. As for `Cc1ccc(COc2ccc3oc(C)c(C(=O)NC4CCN(C)CC4)c3c2)cc1` [Cpd 154, 2-methyl-5-((4-methylbenzyl)oxy)-N-(1-methylpiperidin-4-yl)benzofuran-3-carboxamide], the figure is 1000 to 20000 nM; as for `Cc1oc2ccc(OCc3ccccc3)cc2c1C(=O)NC1CCN(C)C(C)C1` (stereo not drawn) [Cpd 155, 5-(benzyloxy)-N-(1,2-dimethylpiperidin-4-yl)-2-methylbenzofuran-3-carboxamide], under 1000 nM. `Cc1oc2ccc(OCc3ccccc3)cc2c1C(=O)N(C)C1CCN(C)CC1` [Cpd 156, 5-(benzyloxy)-N,2-dimethyl-N-(1-methylpiperidin-4-yl)benzofuran-3-carboxamide] gave an IC50 of 1000 to 20000 nM. As for `Cc1oc2ccc(OCc3cccc(CN)c3)cc2c1C(=O)NC1CCNC1=O` (stereo not drawn) [Cpd 157, 5-((3-(aminomethyl)benzyl)oxy)-2-methyl-N-(2-oxopyrrolidin-3-yl)benzofuran-3-carboxamide], the figure is over 20000 nM; as for `Cc1oc2ccc(OCc3ccccc3)cc2c1C(=O)N[C@H]1CN[C@H](C(N)=O)C1` [Cpd 158, (2S,4R)-4-(5-(benzyloxy)-2-methylbenzofuran-3-carboxamido)pyrrolidine-2-carboxamide], under 1000 nM. In turn, `COC1CCC(NC(=O)c2c(C)oc3ccc(OCc4ccccc4)cc23)CC1` (stereo not drawn) [Cpd 159, 5-(benzyloxy)-N-(4-methoxycyclohexyl)-2-methylbenzofuran-3-carboxamide] displayed an IC50 of 1000 to 20000 nM. `Cc1oc2ccc(OCc3ccccc3)cc2c1C(=O)N[C@@H]1CN[C@@H](C(=O)O)C1` [Cpd 163, (2R,4S)-4-(5-(benzyloxy)-2-methylbenzofuran-3-carboxamido)pyrrolidine-2-carboxylic acid] yielded an IC50 of 1000 to 20000 nM. `COc1ccccc1COc1ccc2oc(C)c(C(=O)NC3CCNC3=O)c2c1` (stereo not drawn) [Cpd 164, 5-((2-methoxybenzyl)oxy)-2-methyl-N-(2-oxopyrrolidin-3-yl)benzofuran-3-carboxamide] yielded an IC50 of under 1000 nM.

Consider `Cc1oc2ccc(OCc3ccccc3)cc2c1C(=O)NCCN1CCOCC1` [Cpd 165, 5-(benzyloxy)-2-methyl-N-(2-morpholinoethyl)benzofuran-3-carboxamide], for which the IC50 is 1000 to 20000 nM. `Cc1oc2ccc(OCc3ccccc3)cc2c1C(=O)NC1CC(CO)(CO)C1` [Cpd 166, 5-(benzyloxy)-N-(3,3-bis(hydroxymethyl)cyclobutyl)-2-methylbenzofuran-3-carboxamide] displayed an IC50 of under 1000 nM. As for `Cc1oc2ccc(OCc3ccccc3)cc2c1C(=O)NC1(CO)CCOCC1` [Cpd 167, 5-(benzyloxy)-N-(4-(hydroxymethyl)tetrahydro-2H-pyran-4-yl)-2-methylbenzofuran-3-carboxamide], the IC50 was under 1000 nM.

`Cc1oc2ccc(OCc3cccc(F)c3)cc2c1C(=O)NC1CCN(C)CC1` [Cpd 168, 5-((3-fluorobenzyl)oxy)-2-methyl-N-(1-methylpiperidin-4-yl)benzofuran-3-carboxamide] registered an IC50 of 1000 to 20000 nM.

Turning to `Cc1ccc(COc2ccc3oc(C)c(C(=O)NS(=O)(=O)C4CC4)c3c2)cc1` [Cpd 169, N-(cyclopropylsulfonyl)-2-methyl-5-((4-methylbenzyl)oxy)benzofuran-3-carboxamide], the IC50 fell in the range of 1000 to 20000 nM. Molecule `Cc1cccc(COc2ccc3oc(C)c(C(=O)NS(=O)(=O)C4CC4)c3c2)c1` [Cpd 170, N-(cyclopropylsulfonyl)-2-methyl-5-((3-methylbenzyl)oxy)benzofuran-3-carboxamide] returned an IC50 of 1000 to 20000 nM. As for `Cc1oc2ccc(OCc3cccc(F)c3F)cc2c1C(=O)NC1CCNC1=O` (stereo not drawn) [Cpd 171, 5-((2,3-difluorobenzyl)oxy)-2-methyl-N-(2-oxopyrrolidin-3-yl)benzofuran-3-carboxamide], the figure is under 1000 nM; as for `Cc1oc2ccc(OCc3c(F)cccc3F)cc2c1C(=O)NC1CCNC1=O` (stereo not drawn) [Cpd 172, 5-((2,6-difluorobenzyl)oxy)-2-methyl-N-(2-oxopyrrolidin-3-yl)benzofuran-3-carboxamide], under 1000 nM. Under `Cc1oc2ccc(OCc3ccccc3)cc2c1C(=O)NC1CCNCC1(F)F` (stereo not drawn) [Cpd 173, 5-(benzyloxy)-N-(3,3-difluoropiperidin-4-yl)-2-methylbenzofuran-3-carboxamide] stands under 1000 nM; under `Cc1oc2ccc(OCc3ccccc3)cc2c1C(=O)NCC(O)c1cccnc1` (stereo not drawn) [Cpd 174, 5-(benzyloxy)-N-(2-hydroxy-2-(pyridin-3-yl)ethyl)-2-methylbenzofuran-3-carboxamide], 1000 to 20000 nM; under `Cc1oc2ccc(OCc3ccccc3F)cc2c1C(=O)NS(=O)(=O)C1CC1` [Cpd 175, N-(cyclopropylsulfonyl)-5-((2-fluorobenzyl)oxy)-2-methylbenzofuran-3-carboxamide], under 1000 nM. Take `Cc1oc2ccc(OCc3cccc(F)c3)cc2c1C(=O)NS(=O)(=O)C1CC1` [Cpd 176, N-(cyclopropylsulfonyl)-5-((3-fluorobenzyl)oxy)-2-methylbenzofuran-3-carboxamide]: the IC50 was under 1000 nM. In turn, `Cc1oc2ccc(OCc3ccc(F)cc3)cc2c1C(=O)NS(=O)(=O)C1CC1` [Cpd 177, N-(cyclopropylsulfonyl)-5-((4-fluorobenzyl)oxy)-2-methylbenzofuran-3-carboxamide] displayed a half-maximal inhibitory concentration (IC50) of 1000 to 20000 nM.

`Cc1noc(C)c1CCNC(=O)c1c(C)oc2ccc(OCc3ccccc3)cc12` [Cpd 178, 5-(benzyloxy)-N-(2-(3,5-dimethylisoxazol-4-yl)ethyl)-2-methylbenzofuran-3-carboxamide] had an IC50 of 1000 to 20000 nM. Regarding `Cc1nc(C)n(CCNC(=O)c2c(C)oc3ccc(OCc4ccccc4)cc23)n1` [Cpd 179, 5-(benzyloxy)-N-(2-(3,5-dimethyl-1H-1,2,4-triazol-1-yl)ethyl)-2-methylbenzofuran-3-carboxamide], the IC50 lay within 1000 to 20000 nM. Take `Cc1oc2ccc(OCc3ccccc3)cc2c1C(=O)NC1CC2(CCNCC2)C1` [Cpd 180, 5-(benzyloxy)-2-methyl-N-(7-azaspiro[3.5]nonan-2-yl)benzofuran-3-carboxamide]: the IC50 is under 1000 nM. As to `Cc1oc2ccc(OCc3ccccc3)cc2c1C(=O)NC1CC2CCC(C1)N2C` (stereo not drawn) [Cpd 181, 5-(benzyloxy)-2-methyl-N-(8-methyl-8-azabicyclo[3.2.1]octan-3-yl)benzofuran-3-carboxamide], the IC50 was under 1000 nM. As for `Cc1oc2ccc(OCc3ccccc3)cc2c1C(=O)N[C@@H]1C[C@H]2CC[C@@H](C1)N2C` [Cpd 182, 5-(benzyloxy)-2-methyl-N-((1R,3s,5S)-8-methyl-8-azabicyclo[3.2.1]octan-3-yl)benzofuran-3-carboxamide], the figure is under 1000 nM. For `Cc1oc2ccc(OCc3ccccc3)cc2c1C(=O)N[C@H]1C[C@H]2CC[C@@H](C1)N2C` [Cpd 183, 5-(benzyloxy)-2-methyl-N-((1R,3r,5S)-8-methyl-8-azabicyclo[3.2.1]octan-3-yl)benzofuran-3-carboxamide], the IC50 was under 1000 nM. The molecule `Cc1oc2ccc(OCc3ccccc3)cc2c1C(=O)N[C@@H]1C[C@H]2CCC[C@@H](C1)N2` [Cpd 184, 5-(benzyloxy)-N-((1R,3s,5S)-9-azabicyclo[3.3.1]nonan-3-yl)-2-methylbenzofuran-3-carboxamide] registered an IC50 of under 1000 nM.
